# Data taken from ChEMBL document CHEMBL3352647, “Synthesis and characterization of novel 1,2-oxazine-based small molecules that targets acetylcholinesterase” (Bioorg Med Chem Lett, 2014).
# Key:
# [1] = Inhibition of soybean 5-LOX by spectrophotometry; set-up: species or system Glycine max
# [2] = target: Acetylcholinesterase (Homo sapiens, UniProt P22303); assay: Inhibition of AChE (unknown origin) using ACh chloride as substrate preincubated for 15 mins before substrate addition by Ellman method
# Chain of Acetylcholinesterase (P22303 whole entry): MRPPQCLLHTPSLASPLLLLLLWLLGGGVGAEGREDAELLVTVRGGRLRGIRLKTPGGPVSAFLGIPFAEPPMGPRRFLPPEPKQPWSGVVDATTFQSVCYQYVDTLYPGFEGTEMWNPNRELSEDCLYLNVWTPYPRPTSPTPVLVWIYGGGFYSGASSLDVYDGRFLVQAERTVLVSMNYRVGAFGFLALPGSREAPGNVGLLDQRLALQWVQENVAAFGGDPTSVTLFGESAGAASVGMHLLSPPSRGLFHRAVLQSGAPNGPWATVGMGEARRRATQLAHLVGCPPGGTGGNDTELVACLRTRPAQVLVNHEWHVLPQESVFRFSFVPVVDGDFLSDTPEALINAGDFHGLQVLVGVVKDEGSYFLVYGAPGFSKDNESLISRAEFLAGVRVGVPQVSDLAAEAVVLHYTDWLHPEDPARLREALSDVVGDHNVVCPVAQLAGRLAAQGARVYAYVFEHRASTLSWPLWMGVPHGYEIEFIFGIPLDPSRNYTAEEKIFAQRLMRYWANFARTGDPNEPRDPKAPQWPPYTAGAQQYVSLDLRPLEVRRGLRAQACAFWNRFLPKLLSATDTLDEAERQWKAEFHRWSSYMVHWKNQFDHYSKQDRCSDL
SMILES,IC50 [1] [µM],IC50 [2] [µM]
COC(=O)C(CC1=NOC(C)(C)C[C@H]1c1ccc(OC)cc1)C(=O)OC,66.9,
CC1(C)C[C@@H](c2ccccc2)C(CN2C(=O)c3ccccc3C2=O)=NO1,30,65.3
COC(=O)C(CC1=NO[C@@H]2CCCC[C@@H]2[C@H]1c1ccc(OC)cc1)C(=O)OC,33.8,
COC(=O)C(CC1=NO[C@@H]2[C@@H]3CC[C@@H](C3)[C@@H]2[C@H]1c1ccccc1)C(=O)OC,21.1,
CC(=O)N1OC(C)(C)CC(c2ccccc2)=C1CN1C(=O)c2ccccc2C1=O,1.88,2.5
COC(=O)C(CC1=C(c2ccc(OC)cc2)CC(C)(C)ON1C(C)=O)C(=O)OC,1.23,14.3
COC(=O)C(CC1=C(c2ccccc2)CC(C)(C)ON1C(C)=O)C(=O)OC,6.32,12
COC(=O)C(CC1=C(c2ccc(Cl)cc2)CC(C)(C)ON1C(C)=O)C(=O)OC,,46.8
COC(=O)CC1=NO[C@@H]2CCCC[C@@H]2[C@H]1c1ccccc1,16.1,35.1
COC(=O)CC1=NO[C@@H]2[C@H]3CC[C@H](C3)[C@@H]2[C@H]1c1ccccc1,16.7,6.3
"COC(=O)C(CC1=NO[C@@H]2CCCC2[C@H]1c1ccccc1)C(=O)OC (single isomer, unassigned)",81.7,75.4
